Data from BindingDB's records for doi:10.3109/14756366.2012.715286 (Chulalongkorn University, 2013).

Target: T1, Tyrosine-protein phosphatase non-receptor type 1 [1-321] (Homo sapiens, UniProt P18031)
T1 construct: 1-321
T1 sequence (P18031 whole entry): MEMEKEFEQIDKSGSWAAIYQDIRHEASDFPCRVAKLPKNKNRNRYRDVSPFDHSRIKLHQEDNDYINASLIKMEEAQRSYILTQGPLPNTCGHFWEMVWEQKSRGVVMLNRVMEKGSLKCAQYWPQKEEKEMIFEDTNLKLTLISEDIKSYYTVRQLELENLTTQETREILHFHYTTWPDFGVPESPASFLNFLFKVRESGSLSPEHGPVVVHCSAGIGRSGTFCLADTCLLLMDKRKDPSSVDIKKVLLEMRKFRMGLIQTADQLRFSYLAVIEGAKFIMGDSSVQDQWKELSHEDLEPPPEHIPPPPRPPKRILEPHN
Assay: PTP1B Activity Assay
Conditions: pH 7.5; 37 °C
Method: PTP1B was diluted before the experiment to 1.2 μg/mL in Tris buffer, pH7.6 (10 mM Tris, 1.0 mM EDTA, 3.0 mM DTT, 0.01% w/v NaN3). The tested compounds were dissolved in DMSO. The enzyme reaction buffer was Tris buffer, pH 7.5 (50 mM Tris, 0.15 M NaCl, 3 mM DTT). A typical 10 μL of tested compounds was added to the enzyme solution (50 μL), and the resulting mixture was preincubated at 37°C for 30 min. The enzyme reaction was initiated by the addition of 8 mM p-NPP (40 μL).

Work on `O=C(O)/C=C/c1ccc(O)cc1` [p-Coumaric Acid] yielded an IC50 of 168 µM.

`O=C(O)/C=C/c1ccccc1O` [(2E)-3-(2-hydroxyphenyl)prop-2-enoic acid] was tested, and the IC50 was 138 µM.
